Structures can show the parent of a compound that is named as a salt.

This passage reports melting point results from US7244738B2, “Arylamine-substituted quinazolinone compounds useful as alpha 1A/B adrenergic receptor antagonists” (Roche Palo Alto LLC, priority 2003, dated 2007).

What is called melting point is the temperature, or range, at which the solid turns liquid. Regarding `COCCN1Cc2ccc(CN(C)c3nc(=O)c4c(OC)c(OC)c(OC)cc4[nH]3)cc2C1` [Example 18, 5,6,7-Trimethoxxy-2-{[2-(2-methoxy-ethyl)-2,3-dihydro-1H-isoindol-5-ylmethyl]-methyl-amino}-1H-quinazolin-4-one], the melting point lay within 133.3 to 136.6 °C.

`CN/C(C)=N/c1cccc(CN(C)c2nc(=O)c3c(C)c(OC)c(OC)cc3[nH]2)c1` [Example 195, N-(3-{[(6,7-Dimethoxy-5-methyl-4-oxo-1,4-dihydro-quinazolin-2-yl)-methyl-amino]-methyl}-phenyl)-N′-methyl-acetamide] showed a melting point of 233.1 to 233.9 °C.

For `COc1cc2[nH]c(N(C)Cc3cccc(C4=NCCN4CCO)c3)nc(=O)c2c(OC)c1OC` (as salt: TFA) [Example 245, 2-({3-[1-(2-Hydroxy-ethy)-4,5-dihydro-1H-imidazol-2-yl]-benzyl}-methyl-amino)-5,6,7-trimethoxy-1H-quinazolin-4-one], the melting point lay in the range of 106.1 to 116.6 °C.

For the molecule `COCCN1CCN=C1c1cccc(CN(C)c2nc(=O)c3c(C)c(OC)c(OC)cc3[nH]2)c1` [Example 246, 6,7-Dimethoxy-2-*{3-[1-(2-methoxy-ethyl)-4,5-dihydro-1H-imidazol-2-yl]-benzyl}-methyla-mino)-5-methyl-1H-quinazolin-4-one], the melting point was 161 to 164.4 °C.

`CNC(=O)c1cccc(CN(C)c2nc(=O)c3c(C)c(OC)c(OC)cc3[nH]2)c1` [Example 136, 3-{[(6,7-Dimethoxy-5-methyl-44-oxo-1,4-dihydro-quinazolin-2-yl)-methyl-amino]-methyl}-N-methyl-benzamide] registered a melting point of 243.3 to 245.1 °C.

For the molecule `COc1cc2[nH]c(N(C)Cc3cccc(N4C(=O)CCC4=O)c3)nc(=O)c2c(C)c1OC` [Example 259], the melting point lay in the range of 198.6 to 199.8 °C.

As for `COc1cc2[nH]c(N(C)Cc3cccc(CN4CCC(O)C4)c3)nc(=O)c2c(OC)c1OC` (centres unmarked) [Example 51, 2-{[3-(3-Hydroxy-pyrrolidin-1-ylmethyl)-benzyl]-methyl-amino}-5,6,7-trimethoxy-1H-quinazolin-4-one], the melting point was 174.3 to 176.4 °C.

Molecule `COCCN(C)c1cccc(CN(C)c2nc(=O)c3c(OC)c(OC)c(OC)cc3[nH]2)c1` [Example G-20, 5,6,7-Trimethoxy-2-({3-[(2-methoxy-ethyl)-methyl-amino]-benzyl}-methyl-amino)-1H-quinazolin-4-one] registered a melting point of 179.3 to 181.2 °C.

`COCCOc1cccc(CN(C)c2nc(=O)c3c(C)c(OC)c(OC)cc3[nH]2)c1` [Example F-10, 6,7-Dimethoxy-2-{[3-(2-methoxy-ethoxy)-benzyl]-methyl-amino}-5-methyl-1H-quinazolin-4-one]: the melting point lay in the range of 144.8 to 145.9 °C.

Consider `COc1cc2[nH]c(N(C)Cc3cccc(N4CCN=C4C)c3)nc(=O)c2c(C)c1OC` [Example H-6, 6,7-Dimethoxy-5-methyl-2-{methyl-[3-(2-methyl-4,5-dihydro-imidazol-1-yl)-benzyl]-amino}-1H-quinazolin-4-one], for which the melting point was in the range of 177 to 180 °C.

For `COc1cc2[nH]c(N(C)Cc3ccc(CN)cc3)nc(=O)c2c(C)c1OC` (as salt: HCl) [Example 42, 2-[(4-Aminomethyl-benzyl)-methyl-amino]-6,7-dimethoxy-5-methyl-1H-quinazolin-4-one], the melting point was in the range of 248.2 to 249.4 °C.

Molecule `COc1cc2[nH]c(N(C)Cc3cccc(CN4CCC(O)C4)c3)nc(=O)c2c(C)c1OC` (centres unmarked) [Example 49, 2-{[3-(3-Hydroxy-pyrrolidin-1-ylmethyl)-benzyl]-methyl-amino}-6,7-dimethoxy-5-methyl-1H-quinazolin-4-one] gave a melting point of 148 to 149.8 °C.

Molecule `COc1cc2[nH]c(N(C)Cc3cccc(NC(=O)N(C)C)c3)nc(=O)c2c(C)c1OC` [Example 180, 3-(3-{[(6,7-Dimethoxy-5-methyl-4-oxo-1,4-dihydro-quinazolin-2-yl)-methyl-amino]-methyl}-phenyl)-1,1-dimethyl-urea] gave a melting point of 131.5 to 168 °C.

For the molecule `COc1cc2[nH]c(N(C)Cc3cccc(CN4CCC4)c3)nc(=O)c2c(OC)c1OC` [Example 47, 2-[(3-Azetidin-1-ylmethyl-benzyl)-methyl-amino]-5,6,7-trimethoxy-1H-quinazolin-4-one], the melting point lay within 131.3 to 133.1 °C.

As for `COc1cc2[nH]c(N(C)Cc3cccc(N4C=NC(C)(C)C4)c3)nc(=O)c2cc1OC` [Example 90, 2-{[3-(4,4-Dimethyl-4,5-dihydro-imidazol-1-yl)-benzyl]-methyl-amino}-6,7-dimethoxy-1H-quinazolin-4-one], the melting point is 240 to 242 °C.

In turn, `CCNCCOc1cccc(CN(C)c2nc(=O)c3c(C)c(OC)c(OC)cc3[nH]2)c1` [Example 165, 2-{[3-(2-Ethylamino-ethoxy)-benzyl]-methyl-amino}-6,7-dimethoxy-5-methyl-1H-quinazolin-4-one] displayed a melting point of 264.6 to 266.5 °C.

As to `COc1cc2[nH]c(N(C)Cc3cccc(NC4=NCCC4)c3)nc(=O)c2c(C)c1OC` [Example G-42, 2-{[3-(4,5-Dihydro-3H-pyrrol-2-ylamino)-benzyl]-methyl-amino}-6,7-dimethoxy-5-methyl-1H-quinazolin-4-one], the melting point was 175.4 to 177.2 °C.

In turn, `COCC(=O)N(C)Cc1cccc(CN(C)c2nc(=O)c3c(C)c(OC)c(OC)cc3[nH]2)c1` [Example 119, N-(3-{[(6,7-Dimethoxy-5-methyl-4-oxo-1,4-dihydro-quinazolin-2-yl)-methyl-amino]-methyl}-benzyl)-2-methoxy-N-methyl-acetamide] gave a melting point of 150 to 151.2 °C.

In turn, `COc1cc2[nH]c(N(C)Cc3cccc(CNC(C)C)c3)nc(=O)c2c(C)c1OC` [Example 67, 2-{[3-(Isopropylamino-methyl)-benzyl]-methyl-amino}-6,7-dimethoxy-5-methyl-1H-quinazolin-4-one] had a melting point of 143.3 to 144.4 °C.

In turn, `COc1cc2[nH]c(N(C)Cc3cccc(N)c3)nc(=O)c2c(C)c1OC` [Example B-1, 2-[(3-Amino-benzyl)-methyl-amino]-6,7-dimethoxy-5-methyl-1H-quinazolin-4-one] yielded a melting point of 268 to 269.5 °C.

For the molecule `COc1ccnc(N2CCN(c3nc(=O)c4c(OC)c(OC)c(OC)cc4[nH]3)CC2)c1` [Example 73, 5,6,7-Trimethoxy-2-[4-(4-methoxy-pyridin-2-yl)-piperazin-1-yl]-1H-quinazolin-4-one], the melting point fell in the range of 229 to 231 °C.

For `CCNCc1cccc(CN(C)c2nc(=O)c3c(C)c(OC)c(OC)cc3[nH]2)c1` [Example 113, 2-[(3-Ethylaminomethyl-benzyl)-methyl-amino]-6,7-dimethoxy-5-methyl-1H-quinazolin-4-one], the melting point was in the range of 158.2 to 158.9 °C.

In turn, `CCN(CCOC)Cc1cccc(CN(C)c2nc(=O)c3c(C)c(OC)c(OC)cc3[nH]2)c1` [Example 121, 2-[(3-{[Ethyl(2-methoxy-ethyl)-amino]-methyl}-benzyl)-methyl-azmino]-6,7-dimethoxy-5-methyl-1H-quinazolin-4-one] yielded a melting point of 121.8 to 122.3 °C.

As for `COc1cc2[nH]c(N(C)Cc3cccc(Nc4cc(C)nc(Cl)n4)c3)nc(=O)c2c(OC)c1OC` [Example 218, 2-{[3-(2-Chloro-6-methyl-pyrimidin-4-ylamino)-benzyl]-methyl-amino}-5,6,7-trimethoxy-1H-quinazolin-4-one], the melting point lay within 185.5 to 187.1 °C.

For `COc1cc2[nH]c(N(C)Cc3cccc(/N=C(\C)N(C)C)c3)nc(=O)c2c(C#N)c1OC` [Example 53, N′-(3-{[(5-Cyano-6,7-dimethoxy-4-oxo-1,4-dihydro-quinazolin-2-yl)-methyl-amino]-methyl}-phenyl)-N,N-dimethyl-acetamide], the melting point lay within 222.1 to 226.9 °C.

`COc1cc2[nH]c(N(C)Cc3cccc(CN(C)CCO)c3)nc(=O)c2c(C)c1OC` [Example 33, 2-[(3-{[(2-Hydroxy-ethyl)-methyl-amino]-methyl}-benzyl)-methyl-amino]-6,7-dimethoxy-5-methyl-1H-quinazolin-4-one] came in with a melting point of 123.8 to 125.6 °C.

Consider `CCc1c(OC)c(OC)cc2[nH]c(N(C)Cc3cccc(N=C4N(C)CCN4C)c3)nc(=O)c12` (as salt: salt) [Example 207, 2-{[3-(1,3-dimethyl-imidazolidin-2-ylideneamino)-benzyl]-methyl-amino}-5-ethyl-6,7-dimethoxy-1H-quinaolin-4-one], for which the melting point fell in the range of 212.5 to 219.9 °C.

On to `CCc1c(OC)c(OC)cc2[nH]c(N(C)Cc3cccc(N=C(C)N(C)C)c3)nc(=O)c12` [Example G-33, N′-(3-{[(5-Ethyl-6,7-dimethoxy-4-oxo-1,4-dihydro-quinazolin-2-yl)-methyl-amino]-methyl}-phenyl)-N,N-dimethyl-acetamidine], for which the melting point lay in the range of 224.6 to 225.5 °C.

In turn, `COc1cc2[nH]c(N(C)Cc3cccc(C(C)N4CCCC4)n3)nc(=O)c2c(C)c1OC` (centres unmarked) [Example 275, 6,7-Dimethoxy-5-methyl-2-{methyl-[6-(1-pyrrolidin-1-yl-ethyl)-pyridin-2-ylmethyl]-amino}-1H-quinazolin-4-one] registered a melting point of 75.4 to 85.6 °C.

Take `COc1cc2[nH]c(N(C)Cc3cccc(N4C[C@@H](OC)CC4=O)c3)nc(=O)c2c(OC)c1OC` [Example 8, 5,6,7-Trimethoxy-2-{[3-((S)-4-methoxy-2-oxo-pyrrolidin-1-yl)-benzyl]-methyl-amino}-1H-quinazolin-4-one]: the melting point was in the range of 142.5 to 147.4 °C.

`CNCC(=O)N(C)C(C)c1cccc(CN(C)c2nc(=O)c3c(C)c(OC)c(OC)cc3[nH]2)c1` (centres unmarked) [Example 52, N-[1-(3-{[(6,7-Dimethoxy-5-methyl-4-oxo-1,4-dihydro-quinazolin-2-yl)-methyl-amino]-methyl}-phenyl)-ethyl]-N-methyl-2-methylamino-acetamide] showed a melting point of 118.1 to 120.8 °C.

On to `CCc1c(OC)c(OC)cc2[nH]c(N(C)Cc3cccc(/N=C(\C)N(C)C)c3)nc(=O)c12` [Example 199, N′-(3-{[(5-Ethyl-6,7-dimethoxy-4-oxo-1,4-dihydro-quinazolin-2-yl)-methyl-amino]-methyl}-phenyl)-N,N-dimethyl-acetamidine], for which the melting point is 224.6 to 225.5 °C.
